# Experimental data from ChEMBL document CHEMBL1151369, “Antitumor agents. 39. Bruceantinoside-A and -B, novel antileukemic quassinoid glucosides from Brucea antidysenterica” (1981).
# Tests used:
# Type in all cases: functional
# P388 [1] = test: In vivo antileukemic activity against mouse P388 cells at 6 mg/kg relative to control
# P388 [2] = test: In vivo antileukemic activity against mouse P388 cells at 1 mg/kg relative to control
# P388 [3] = test: In vivo antileukemic activity against mouse P388 cells at 0.5 mg/kg relative to control
# P388 [4] = test: In vivo antileukemic activity against mouse P388 cells at 20 mg/kg relative to control
# P388 [5] = test: In vivo antileukemic activity against mouse P388 cells at 10 mg/kg relative to control
SMILES,T/C (P388 [1]),T/C (P388 [2]),T/C (P388 [3]),T/C (P388 [4]),T/C (P388 [5])
COC(=O)[C@]12OC[C@@]34[C@H](C[C@H]5[C@H](C)C(=O)C(O[C@@H]6O[C@H](CO)[C@@H](O)[C@H](O)[C@H]6O)=C[C@]5(C)[C@H]3[C@@H](O)[C@@H]1O)OC(=O)[C@H](OC(=O)/C=C(\C)C(C)C)[C@@H]24 [BRUCEANTINOSIDE A],118%,106%,110%,172%,152%
COC(=O)[C@]12OC[C@@]34[C@H](C[C@H]5C(C)=C(O[C@@H]6O[C@H](CO)[C@@H](O)[C@H](O)[C@H]6O)C(=O)C[C@]5(C)[C@H]3[C@@H](O)[C@@H]1O)OC(=O)[C@H](OC(=O)/C=C(\C)C(C)C)[C@@H]24 [BRUCEANTINOSIDE B],–,–,–,160%,132%
